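48-hour exposure; five concentrations; linearly interpolated endpoints. TGI marks complete inhibition of growth.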
What was measured:
Test in all cases: DTP human tumour cell line panel, 48 h
SK-MEL-5 melanoma = system: SK-MEL-5 melanoma
HT29 colon = system: HT29 colon
SK-OV-3 ovarian = system: SK-OV-3 ovarian
MDA-MB-435 = system: MDA-MB-435
SK-MEL-28 melanoma = system: SK-MEL-28 melanoma
UO-31 renal = system: UO-31 renal
TK-10 renal = system: TK-10 renal
K-562 leukemia = system: K-562 leukemia
SNB-19 CNS = system: SNB-19 CNS
UACC-62 melanoma = system: UACC-62 melanoma

| SMILES | TGI (SK-MEL-5 melanoma) [µM] | TGI (HT29 colon) [µM] | TGI (SK-OV-3 ovarian) [µM] | TGI (MDA-MB-435) [µM] | TGI (SK-MEL-28 melanoma) [µM] | TGI (UO-31 renal) [µM] | TGI (TK-10 renal) [µM] | TGI (K-562 leukemia) [µM] | TGI (SNB-19 CNS) [µM] | TGI (UACC-62 melanoma) [µM] |
| --- | --- | --- | --- | --- | --- | --- | --- | --- | --- | --- |
| COc1ccc(N=NC(=O)NC(CC(C)C)C(N)=O)cc1 (stereo not given) | > 100 | > 100 | > 100 | > 100 | > 100 | > 65.4 | > 31.6 | > 100 | > 100 | > 100 |
| CC(C)(C)OC(=O)CN1CCNCCN(CC(=O)OC(C)(C)C)CCNCC1 | > 100 | > 100 | > 100 | > 100 | > 100 | > 100 | > 100 | > 100 | > 100 | > 100 |
| NCC(O)CNC(=O)c1ccc(-c2ccc(-c3ccc(C(=O)NCC(O)CN)cc3)o2)cc1 (stereo not given) | > 100 | > 100 | 58 | > 100 | > 100 | > 100 | 38.9 | > 100 | 46.2 | > 100 |
| CCCCCCCCCCCC[C@@H](O)[C@H]1CCC([C@H](O)CCCCC(=O)CCCCCCCC2=C[C@H](C)OC2=O)O1 (stereo not given in full) | > 20.2 | > 50 | > 50 | > 50 | > 50 | > 50 | > 50 | > 50 | > 50 | > 40.9 |
| Cc1ccc(C(=O)Nc2ccc(CP(=O)(O)O)cc2CP(=O)(O)O)cc1NC(=O)Nc1cc(C(=O)Nc2ccc(CP(=O)(O)O)cc2CP(=O)(O)O)ccc1C | > 100 | > 100 | > 100 | > 100 | > 100 | > 100 | > 100 | > 100 | > 100 | > 100 |
| Cc1nc(C)c(N2CCNCC2)c(=O)[nH]1 | > 100 | > 100 | > 100 | > 100 | > 100 | > 100 | > 100 | > 100 | > 100 | > 100 |
| Cc1c(N=Nc2ccccc2)c(C)n(C2OC(CO)C(O)C(O)C2O)c(=S)c1C#N (stereo not given) | 25 | > 100 | > 100 | 71.4 | > 100 | 73.1 | > 100 | > 100 | 96.2 | 18.9 |
| CC(C)=CCC/C(C)=C/COc1c2ccoc2cc2oc(=O)ccc12 | 28.6 | 81.1 | 82.6 | > 100 | > 100 | 59.7 | > 100 | > 100 | > 100 | 38.3 |
| COC(=O)c1ccc(C)cc1CC1Cc2ccc(C)cc2C1=O (stereo not given) | 19.6 | 11.1 | 59.5 | 4.03 | 76.7 | 64 | 46.8 | 10.5 | > 100 | 51.4 |
| O=C(/C=C/c1cccc(Oc2ccccc2)c1)NCc1ccc(C(=O)NCCc2ccccc2)cc1 | > 100 | > 100 | > 100 | > 100 | > 100 | > 100 | > 100 | > 100 | > 100 | > 100 |
| CCOC(=O)NC(OC)(C(F)(F)F)C(F)(F)F | > 100 | > 100 | > 100 | > 100 | > 100 | > 100 | > 100 | > 100 | > 100 | > 100 |
